Where two headings read alike, the source gives them in different places.
Biological target: Human Factor D (Homo sapiens (Human), UniProt P00746)
Assay: Human Factor D Assay
Type: biochemical
Procedure, shortened: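 Thioester cleavage assay: human Factor D (serum-derived, 80 nM final), substrate Z-L-Lys-SBzl with DTNB, both 100 μM final, after 5 min compound preincubation at room temperature.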

[1] = Human Factor D assay of Example 8, Table 2, read-out: IC50

Human Factor D, sequence (P00746 26-253): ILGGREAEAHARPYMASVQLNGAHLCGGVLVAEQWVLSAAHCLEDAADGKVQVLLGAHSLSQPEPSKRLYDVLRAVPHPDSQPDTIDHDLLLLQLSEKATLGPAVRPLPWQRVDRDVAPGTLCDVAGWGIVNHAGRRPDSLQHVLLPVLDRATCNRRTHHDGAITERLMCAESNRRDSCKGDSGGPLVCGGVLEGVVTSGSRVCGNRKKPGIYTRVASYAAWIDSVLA

Compound	IC50 [µM]	IC50 [1] [µM]
CCc1cn(CC(=O)N2NCCC2C(=O)Nc2cccc(-c3ccccc3Cl)c2F)c2ccc(-c3cnc(C)nc3)cc12 (stereo not drawn) [Compound 267, N-(2′-chloro-2-fluorobiphenyl-3-yl)-2-(2-(3-ethyl-5-(2-methylpyrimidin-5-yl)-1H-indol-1-yl)acetyl)pyrazolidine-3-carboxamide]	1 to 10	
CC(=O)c1nn(CC(=O)N2C[C@H](F)C[C@H]2C(=O)Nc2cccc(Br)n2)c2ccc(-c3cnc4c(C)cnn4c3)cc12 [Compound 268, (2S,4R)-1-(2-(3-acetyl-5-(3-methylpyrazolo[1,5-a]pyrimidin-6-yl)-1H-indazol-1-yl)acetyl)-N-(6-bromopyridin-2-yl)-4-fluoropyrrolidine-2-carboxamide]		< 1
COCCNc1ncc(-c2ccc3c(c2)c(C(C)=O)nn3CC(=O)N2C[C@H](F)C[C@H]2C(=O)Nc2cccc(Br)n2)cn1 [Compound 269, (2S,4R)-1-(2-(3-acetyl-5-(2-(2-methoxyethylamino)pyrimidin-5-yl)-1H-indazol-1-yl)acetyl)-N-(6-bromopyridin-2-yl)-4-fluoropyrrolidine-2-carboxamide]		< 1
CC(=O)c1nn(CC(=O)N2CC[C@@H](N)[C@H]2C(=O)Nc2cccc(Br)n2)c2ccc(-c3cnc(C)nc3)cc12 [Compound 270, (2S,3R)-1-(2-(3-Acetyl-5-(2-methylpyrimidin-5-yl)-1H-indazol-1-yl)acetyl)-3-amino-N-(6-bromopyridin-2-yl)pyrrolidine-2-carboxamide]		< 1
CC(=O)c1nn(CC(=O)N2C(=O)CC[C@H]2C(=O)Nc2cccc(Br)n2)c2ccc(-c3cnc(C)nc3)cc12 [Compound 271, (S)-1-(2-(3-Acetyl-5-(2-methylpyrimidin-5-yl)-1H-indazol-1-yl)acetyl)-N-(6-bromopyridin-2-yl)-5-oxopyrrolidine-2-carboxamide]		< 1
CC(=O)c1nn(CC(=O)N2C[C@H](F)C[C@H]2C(=O)Nc2cccc(-c3c(F)c(F)c(F)c(F)c3F)c2F)c2ccc(-c3cnc(C)nc3)cc12 [Compound 272, (2S,4R)-1-(2-(3-acetyl-5-(2-methylpyrimidin-5-yl)-1H-indazol-1-yl)acetyl)-4-fluoro-N-(2,2′,3′,4′,5′,6′-hexafluorobiphenyl-3-yl)pyrrolidine-2-carboxamide]		< 1
CC(=O)c1nn(CC(=O)N2C[C@H](F)C[C@H]2C(=O)Nc2cccc(Br)c2F)c2ccc(-c3cnc(C)nc3)cc12 [Compound 273, (2S,4R)-1-(2-(3-acetyl-5-(2-methylpyrimidin-5-yl)-1H-indazol-1-yl)acetyl)-N-(3-bromo-2-fluorophenyl)-4-fluoropyrrolidine-2-carboxamide]		< 1
CC(=O)c1nn(CC(=O)N2C[C@H](F)C[C@H]2C(=O)Nc2cccc(Br)n2)c2ccc(-c3cnc4cc(C(C)C)nn4c3)cc12 [Compound 274, (2S,4R)-1-(2-(3-acetyl-5-(2-isopropylpyrazolo [1,5-a]pyrimidin-6-yl)-1H-indazol-1-yl)acetyl)-N-(6-bromopyridin-2-yl)-4-fluoropyrrolidine-2-carboxamide]		< 1
COc1cccc(NC(=O)[C@@H]2C[C@@H](F)CN2C(=O)Cn2nc(C(C)=O)c3cc(-c4cnc5cc(C)nn5c4)ccc32)c1F [Compound 275, (2S,4R)-1-(2-(3-acetyl-5-(2-methylpyrazolo[1,5-a]pyrimidin-6-yl)-1H-indazol-1-yl)acetyl)-4-fluoro-N-(2-fluoro-3-methoxyphenyl) pyrrolidine-2-carboxamide]		< 1
CC(=O)c1cn(CC(=O)N2C[C@H](F)C[C@H]2C(=O)Nc2cccc(OC(F)(F)F)c2F)c2ccc(-c3cnc4cc(C)nn4c3)cc12 [Compound 276, (2S,4R)-1-(2-(3-acetyl-5-(2-methylpyrazolo[1,5-a]pyrimidin-6-yl)-1H-indol-1-yl)acetyl)-4-fluoro-N-(2-fluoro-3-(trifluoromethoxy)phenyl)pyrrolidine-2-carboxamide]		< 1
CC(=O)c1cn(CC(=O)N2C[C@H](F)C[C@H]2C(=O)Nc2cccc(Br)n2)c2ccc(-c3cnc4cc(C)nn4c3)cc12 [Compound 277, (2S,4R)-1-(2-(3-acetyl-5-(2-methylpyrazolo[1,5-a]pyrimidin-6-yl)-1H-indol-1-yl)acetyl)-N-(6-bromopyridin-2-yl)-4-fluoropyrrolidine-2-carboxamide]		< 1
Cc1ncc(-c2cc3c(C(N)=O)nn(CC(=O)N4C[C@H](F)C[C@H]4C(=O)Nc4cccc(Br)n4)c3cn2)cn1 [Compound 278, 1-(2-((2S,4R)-2-(6-bromopyridin-2-ylcarbamoyl)-4-fluoropyrrolidin-1-yl)-2-oxoethyl)-5-(2-methylpyrimidin-5-yl)-1H-pyrazolo[3,4-c]pyridine-3-carboxamide]		< 1
C=CCCCCCCCCCNc1ncc(-c2ccc3c(c2)c(C(C)=O)nn3CC(=O)N2C[C@H](F)C[C@H]2C(=O)NCc2cc(C=C)cc(Cl)c2F)cn1 [Compound 279, (2S,4R)-1-(2-(3-acetyl-5-(2-(undec-10-enylamino)pyrimidin-5-yl)-1H-indazol-1-yl)acetyl)-N-(3-chloro-2-fluoro-5-vinylbenzyl)-4-fluoropyrrolidine-2-carboxamide]		> 10
CC(=O)c1nn(CC(=O)N2C[C@H](F)C[C@H]2C(=O)Nc2cccc(OC(F)F)c2F)c2ccc(-c3cnc4cc(C)nn4c3)cc12 [Compound 281, (2S,4R)-1-(2-(3-acetyl-5-(2-methylpyrazolo[1,5-a]pyrimidin-6-yl)-1H-indazol-1-yl)acetyl)-N-(3-(difluoromethoxy)-2-fluorophenyl)-4-fluoropyrrolidine-2-carboxamide]		< 1
CC(=O)c1nn(CC(=O)N2C[C@H](F)C[C@H]2C(=O)Nc2cccc(OC(F)F)c2F)c2ccc(-c3cnc4ccnn4c3)cc12 [Compound 282, (2S,4R)-1-(2-(3-acetyl-5-(pyrazolo[1,5-a]pyrimidin-6-yl)-1H-indazol-1-yl)acetyl)-N-(3-(difluoromethoxy)-2-fluorophenyl)-4-fluoropyrrolidine-2-carboxamide]		< 1
Cc1cc2ncc(-c3cc4c(C(N)=O)nn(CC(=O)N5C[C@H](F)C[C@H]5C(=O)Nc5cccc(OC(F)(F)F)c5F)c4cn3)cn2n1 [Compound 283, 1-(2-((2S,4R)-4-fluoro-2-(2-fluoro-3-(trifluoromethoxy)phenylcarbamoyl)pyrrolidin-1-yl)-2-oxoethyl)-5-(2-methylpyrazolo[1,5-a]pyrimidin-6-yl)-1H-pyrazolo[3,4-c]pyridine-3-carboxamide]		< 1
Cc1cc2ncc(-c3ccc4c(c3)c(C(N)=O)nn4CC(=O)N3C[C@H](F)C[C@H]3C(=O)Nc3cccc(Br)n3)cn2n1 [Compound 284, 1-(2-((2S,4R)-2-(6-bromopyridin-2-ylcarbamoyl)-4-fluoropyrrolidin-1-yl)-2-oxoethyl)-5-(2-methylpyrazolo[1,5-a]pyrimidin-6-yl)-1H-indazole-3-carboxamide]		< 1
CC(=O)c1nn(CC(=O)N2CC=C[C@H]2C(=O)Nc2cccc(-c3ccccc3Cl)c2F)c2ccc(-c3cnc(C)nc3)cc12 [Compound 286, (S)-1-(2-(3-acetyl-5-(2-methylpyrimidin-5-yl)-1H-indazol-1-yl)acetyl)-N-(2′-chloro-2-fluorobiphenyl-3-yl)-2,5-dihydro-1H-pyrrole-2-carboxamide]		< 1
